Legend:
Smad 1/5/8 activity = test: BRE-luciferase reporter assay; assay type: cell-based; details: H1299 cells; 10 μM Dorsomorphin or 1 μM DMH1, DMH2, LDN; 48 hours; vs DMSO
Procedure: Luciferase Assays. 10^6 H1299 cells were transfected with 2 μg of BRE-luciferace plasmid using a Nucleofector II. […] Cells were lysed with luciferase lysis buffer (Promega). Samples were added to luciferase assay substrate (Promega) and luminsescence measured by the TD-20/20 Luminometer (Turner Designs/Turner BioSystems, Sunnyvale, Calif.). Control samples included luciferase assay substrate alone and luciferase assay substrate plus 1× reporter lysis buffer.

[1] = system: phosphorylated Smad 1/5/8; test: Western blot for phosphorylated Smad 1/5/8; assay type: cell-based; details: for level of phosphorylated Smad 1/5/8 expression: lung cancer cell lines (H1299, A549)
Procedure: (§1) Western Blot Analysis. Total cellular protein was prepared using RIPA buffer containing a protease inhibitor cocktail and protein concentration was measured using the BCA assay as described. In brief, protein was analyzed by SDS-PAGE, transferred to nitrocellulose (Schleicher and Schuell, Keene, N.H.). After blocking, the blots were incubated overnight at 4° C. with the appropriate primary antibody in Tris-buffered saline with 1% Tween (TBST) and 5% non-fat milk. Secondary antibodies were applied for 1 hour at room temperature. Specific proteins were detected using the enhanced chemiluminescence system (Amersham, Arlington Heights, Ill.). The primary antibodies that were used were rabbit monoclonal anti-pSmad 1/5/8 (Cell signaling Technology, Danvers Mass.) rabbit anti-actin, an affinity isolated antigen specific antibody (Sigma, Saint Louis, Mo.), rabbit monoclonal anti-Id1 and rabbit monoclonal anti-Id3 (Calbioreagents, San Mateo, Calif.).

[2] = system: Id1, Id2, and Id3 expression; test: Quantitative RT-PCR for Id family members; assay type: cell-based; details: A549 and H1299 cell lines; 10 μM Dorsomorphin, 1 μM DMH1 or DMH2; 48 hours
Procedure: Quantification of Gene Expression. RNA was extracted using the RNeasy kit as per the manufacturer's instructions (Qiagen, Valencia, Calif.). DNAase was used to remove any DNA contamination. cDNA was generated using Advantage RT for PCR kit (BD BiosciencesClontech, Palo Alto, Calif.). Quantitative PCR was performed with the Stratagene Mx3005p (Agilent Technologies) and predesigned validated Taq-Man gene expression assays according to the manufacturer's specifications (Applied Biosystems, Foster City, Calif.). Reference numbers used are: GAPDH (Hs99999905_m1), ACVRL1 (alk1) (Hs00163543_m1), ACVR1A (alk2) (Hs00153836_m1), BMR1A (alk3) (Hs00831730_s1), BMPR1B (alk6) (Hs00176144_m1), Id1 (Hs00357821_g1), Id2 (Hs00747379_m1), and Id3 (Hs00171409-m1). Negative control included all reagents except cDNA. Expression was normalized to GAPDH using the formula […].

Id1 and Id3 protein = test: Western blot for Id1 and Id3; assay type: cell-based; details: for protein levels of Id1 and Id3: A549 and H1299 cells
Procedure: as §1

[3] = target: T1, constitutively active alk3 (ca-alk3) (Homo sapiens, UniProt P36894, Q233D); test: BRE-luciferase with constitutively active alk3 in H1299 cells; assay type: cell-based; details: 1 μM antagonist
T1 construct: expressed in transfected cells; host or cells: H1299
Procedure: (§2) To assess the effects of antagonists on a specific type I BMP receptor, 2 μg of constitutively active ca-alk3 and ca-alk6 expression vectors were co-transfected with the BRE-luciferase reporter into H1299 cells with Nucleofector II. Control cells were co-transfected with the pcDNA3 expression vector. After 48 hours the cells were treated with DMSO or a BMP receptor antagonist for 48 hours and luminescence was measured.

[4] = system: constitutively active alk6 (ca-alk6); test: BRE-luciferase with constitutively active alk6 in H1299 cells; assay type: cell-based; details: 1 μM antagonist
Procedure: as §2

A549 cells [5] = test: Soft agar assay (anchorage independent growth); assay type: cell-based; details: A549 in soft agar; 1 μM; 2 weeks
Procedure: (§3) Soft Agar Assay. A 1% agar mixture was prepared in sterile double-distilled water, microwaved, and cooled to 40° C. in a water bath. DMEM was also incubated at 40° C. Equal amounts of each were mixed and 1 ml added to each well of a six well plate. The base agar was allowed to solidify. A 0.7% agar mixture was prepared then cooled to 40° degrees. Cells were trypsinized and counted. Cells (2500 cells per well) were placed in pre-warmed DMEM containing DMSO or DMH1 […]. The treated cells were then mixed with the 0.7% agar and 2 ml placed on top of the base agar. Once solidified, 1 ml of DMEM was placed on top of the agar. […]

H1299 cells [6] = test: Soft agar assay (anchorage independent growth); assay type: cell-based; details: H1299 in soft agar; 1 μM; 2 weeks
Procedure: as §3

A549 cells [7] = test: Ethidium bromide uptake cell death assay; assay type: cell-based; details: 48 hours, 10 μM Dorsomorphin or 1 μM selective antagonist
Procedure: Cell Death Assay: A549 and H1299 cells were plated in 6 well plates with 10^6 cells per well. Cells were treated with DMSO or a BMP receptor antagonist for 12 and 48 hours. Adherent and floating cells were harvested and incubated with 0.1 mg/ml of ethidium bromide. Immediately after staining approximately 100 cells were counted and the percentage of cells that took up ethidium bromide was determined.

alk2 = target: T2, alk2 (Mus musculus, UniProt P37172); details: reported [26]; cited from earlier work
T2 construct: host or cells: C2C12
T2 sequence (P37172 21-509): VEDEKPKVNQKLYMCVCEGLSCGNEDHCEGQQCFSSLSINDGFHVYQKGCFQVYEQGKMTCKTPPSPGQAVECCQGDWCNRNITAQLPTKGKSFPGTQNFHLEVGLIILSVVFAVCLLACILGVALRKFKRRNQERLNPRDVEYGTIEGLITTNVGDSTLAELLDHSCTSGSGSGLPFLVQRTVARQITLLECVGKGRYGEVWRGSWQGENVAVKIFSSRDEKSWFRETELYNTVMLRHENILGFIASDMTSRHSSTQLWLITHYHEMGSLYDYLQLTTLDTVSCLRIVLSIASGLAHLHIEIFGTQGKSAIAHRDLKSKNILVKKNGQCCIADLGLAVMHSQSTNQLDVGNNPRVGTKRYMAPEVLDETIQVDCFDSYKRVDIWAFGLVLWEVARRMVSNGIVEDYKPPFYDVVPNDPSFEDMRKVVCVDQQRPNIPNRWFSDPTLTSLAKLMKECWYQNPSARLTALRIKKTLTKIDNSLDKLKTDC

alk3 = target: T3, alk3 (Mus musculus, UniProt P36895); details: reported [26]; cited from earlier work
T3 construct: host or cells: C2C12

alk6 = target: T4, alk6 (Mus musculus, UniProt P36898); details: reported [26]; cited from earlier work
T4 construct: host or cells: C2C12

AMP kinase = details: compared with Dorsomorphin and LDN; cited from earlier work
VEGF II = VEGF II (Homo sapiens, UniProt P35968); details: compared with Dorsomorphin and LDN; cited from earlier work
TGFβ receptor alk5 = target: T5, TGFβ receptor alk5 (Homo sapiens, UniProt P36897); details: compared with Dorsomorphin and LDN; cited from earlier work
T5 sequence (P36897 34-503): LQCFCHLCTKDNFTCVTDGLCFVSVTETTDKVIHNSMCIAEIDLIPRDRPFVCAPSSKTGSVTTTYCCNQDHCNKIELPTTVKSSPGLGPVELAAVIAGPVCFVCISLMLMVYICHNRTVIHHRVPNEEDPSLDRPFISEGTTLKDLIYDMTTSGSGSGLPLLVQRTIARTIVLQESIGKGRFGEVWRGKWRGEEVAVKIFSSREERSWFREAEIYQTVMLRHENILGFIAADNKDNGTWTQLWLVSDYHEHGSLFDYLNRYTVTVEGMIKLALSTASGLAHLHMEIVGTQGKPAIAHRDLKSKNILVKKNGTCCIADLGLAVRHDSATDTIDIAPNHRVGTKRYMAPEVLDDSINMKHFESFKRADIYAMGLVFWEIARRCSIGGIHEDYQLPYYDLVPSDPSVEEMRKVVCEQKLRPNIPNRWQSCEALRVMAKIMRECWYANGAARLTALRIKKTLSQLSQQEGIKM

[8] = target: platelet-derived growth factor receptor-β (Homo sapiens, UniProt P09619); details: compared with Dorsomorphin and LDN; cited from earlier work
A549 cells [9] = test: Cell counts after 7 days; assay type: cell-based; details: DMEM 5% FCS, 10 μM Dorsomorphin or 1 μM DMH1, DMH2, LDN
Procedure: (§4) Cell Counts. A549 and H1299 cells were plated into 6 well plates with 100,000 cells per well. Cells were treated with DMSO or a BMP receptor antagonist for 7 days. The cells were detached with trypsin, stained with trypan blue, and the number of live cells counted using a hemacytometer.

H1299 cells [10] = test: Cell counts after 7 days; assay type: cell-based; details: H1299, DMEM 5% FCS, 10 μM Dorsomorphin or 1 μM DMH1, DMH2, LDN
Procedure: as §4

A549 cells [11] = test: Clonogenic growth assay; assay type: cell-based; details: 1 μM, 2 weeks
Procedure: (§5) Clonigenic Growth Assay. A549 and H1299 cells were plated into 6 well plates with 500 cells per well. The next day the cells were treated with DMSO or a BMP receptor antagonist for 2 weeks. The colonies were stained with Diff-Quick (IMEB Inc. San Marcos, Calif.) and the total number of colonies per well counted.

H1299 cells [12] = test: Clonogenic growth assay; assay type: cell-based; details: 1 μM, 2 weeks
Procedure: as §5

T3 sequence (P36895 24-532): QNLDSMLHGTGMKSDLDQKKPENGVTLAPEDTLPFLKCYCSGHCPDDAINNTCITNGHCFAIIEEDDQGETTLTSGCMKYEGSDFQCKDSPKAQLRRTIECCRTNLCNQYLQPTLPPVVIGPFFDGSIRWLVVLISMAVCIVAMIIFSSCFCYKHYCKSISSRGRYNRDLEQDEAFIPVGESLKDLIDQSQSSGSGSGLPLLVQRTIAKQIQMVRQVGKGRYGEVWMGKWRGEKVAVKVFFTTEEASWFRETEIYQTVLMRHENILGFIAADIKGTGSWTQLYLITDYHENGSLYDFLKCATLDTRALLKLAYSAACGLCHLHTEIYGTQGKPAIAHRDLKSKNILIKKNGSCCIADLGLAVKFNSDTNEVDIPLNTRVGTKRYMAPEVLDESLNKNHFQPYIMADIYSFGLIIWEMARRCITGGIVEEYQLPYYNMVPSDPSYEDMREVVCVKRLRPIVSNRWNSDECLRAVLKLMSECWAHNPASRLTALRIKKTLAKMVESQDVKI
T4 sequence (P36898 14-502): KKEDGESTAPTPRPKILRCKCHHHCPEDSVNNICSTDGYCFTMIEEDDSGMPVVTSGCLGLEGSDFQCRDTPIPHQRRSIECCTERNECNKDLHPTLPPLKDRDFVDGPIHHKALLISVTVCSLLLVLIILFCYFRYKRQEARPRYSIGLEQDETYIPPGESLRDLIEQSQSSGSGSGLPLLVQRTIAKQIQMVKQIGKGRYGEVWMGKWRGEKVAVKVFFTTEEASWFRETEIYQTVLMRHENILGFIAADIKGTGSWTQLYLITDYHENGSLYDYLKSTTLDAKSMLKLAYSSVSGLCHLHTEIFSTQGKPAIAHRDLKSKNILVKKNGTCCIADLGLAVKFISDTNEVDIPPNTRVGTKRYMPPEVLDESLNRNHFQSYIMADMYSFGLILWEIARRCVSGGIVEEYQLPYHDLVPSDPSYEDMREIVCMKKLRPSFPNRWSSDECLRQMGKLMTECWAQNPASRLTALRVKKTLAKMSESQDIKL
T1 sequence (P36894 24-532 Q233D): as the sequence (P36895 24-532) above, with L16S, P21S, T74A, V133L, V142I, G164R, Q210D, I373V counted along it
platelet-derived growth factor receptor-β, sequence (P09619 33-1106, species assumed): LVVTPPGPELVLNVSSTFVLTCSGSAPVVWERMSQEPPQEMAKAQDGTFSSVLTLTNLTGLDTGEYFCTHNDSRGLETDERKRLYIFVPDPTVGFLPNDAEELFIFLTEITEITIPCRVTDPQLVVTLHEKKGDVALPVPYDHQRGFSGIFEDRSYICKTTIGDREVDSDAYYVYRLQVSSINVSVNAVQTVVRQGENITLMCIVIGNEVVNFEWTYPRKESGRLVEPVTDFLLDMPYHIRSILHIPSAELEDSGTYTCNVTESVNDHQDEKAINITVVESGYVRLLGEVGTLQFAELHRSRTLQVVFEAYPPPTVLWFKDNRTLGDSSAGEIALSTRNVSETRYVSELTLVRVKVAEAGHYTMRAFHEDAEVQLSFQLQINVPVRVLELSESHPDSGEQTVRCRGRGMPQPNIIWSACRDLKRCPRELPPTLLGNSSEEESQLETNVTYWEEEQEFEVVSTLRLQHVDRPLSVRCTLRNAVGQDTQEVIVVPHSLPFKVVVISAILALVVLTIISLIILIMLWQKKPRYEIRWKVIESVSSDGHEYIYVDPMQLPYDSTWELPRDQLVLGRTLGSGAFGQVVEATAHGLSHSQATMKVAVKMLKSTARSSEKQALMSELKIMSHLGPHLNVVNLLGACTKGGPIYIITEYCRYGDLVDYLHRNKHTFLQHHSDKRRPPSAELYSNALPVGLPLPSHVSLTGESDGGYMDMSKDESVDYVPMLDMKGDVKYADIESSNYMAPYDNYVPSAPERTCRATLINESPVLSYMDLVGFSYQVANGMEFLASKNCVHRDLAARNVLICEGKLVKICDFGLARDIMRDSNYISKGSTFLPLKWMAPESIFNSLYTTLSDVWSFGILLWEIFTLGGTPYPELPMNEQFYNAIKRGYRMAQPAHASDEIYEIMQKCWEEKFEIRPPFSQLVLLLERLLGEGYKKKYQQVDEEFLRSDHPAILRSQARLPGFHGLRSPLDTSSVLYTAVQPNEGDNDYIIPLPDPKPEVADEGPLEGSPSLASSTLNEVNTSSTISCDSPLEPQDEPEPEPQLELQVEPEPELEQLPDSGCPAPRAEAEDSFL
VEGF II, sequence (P35968 20-1356): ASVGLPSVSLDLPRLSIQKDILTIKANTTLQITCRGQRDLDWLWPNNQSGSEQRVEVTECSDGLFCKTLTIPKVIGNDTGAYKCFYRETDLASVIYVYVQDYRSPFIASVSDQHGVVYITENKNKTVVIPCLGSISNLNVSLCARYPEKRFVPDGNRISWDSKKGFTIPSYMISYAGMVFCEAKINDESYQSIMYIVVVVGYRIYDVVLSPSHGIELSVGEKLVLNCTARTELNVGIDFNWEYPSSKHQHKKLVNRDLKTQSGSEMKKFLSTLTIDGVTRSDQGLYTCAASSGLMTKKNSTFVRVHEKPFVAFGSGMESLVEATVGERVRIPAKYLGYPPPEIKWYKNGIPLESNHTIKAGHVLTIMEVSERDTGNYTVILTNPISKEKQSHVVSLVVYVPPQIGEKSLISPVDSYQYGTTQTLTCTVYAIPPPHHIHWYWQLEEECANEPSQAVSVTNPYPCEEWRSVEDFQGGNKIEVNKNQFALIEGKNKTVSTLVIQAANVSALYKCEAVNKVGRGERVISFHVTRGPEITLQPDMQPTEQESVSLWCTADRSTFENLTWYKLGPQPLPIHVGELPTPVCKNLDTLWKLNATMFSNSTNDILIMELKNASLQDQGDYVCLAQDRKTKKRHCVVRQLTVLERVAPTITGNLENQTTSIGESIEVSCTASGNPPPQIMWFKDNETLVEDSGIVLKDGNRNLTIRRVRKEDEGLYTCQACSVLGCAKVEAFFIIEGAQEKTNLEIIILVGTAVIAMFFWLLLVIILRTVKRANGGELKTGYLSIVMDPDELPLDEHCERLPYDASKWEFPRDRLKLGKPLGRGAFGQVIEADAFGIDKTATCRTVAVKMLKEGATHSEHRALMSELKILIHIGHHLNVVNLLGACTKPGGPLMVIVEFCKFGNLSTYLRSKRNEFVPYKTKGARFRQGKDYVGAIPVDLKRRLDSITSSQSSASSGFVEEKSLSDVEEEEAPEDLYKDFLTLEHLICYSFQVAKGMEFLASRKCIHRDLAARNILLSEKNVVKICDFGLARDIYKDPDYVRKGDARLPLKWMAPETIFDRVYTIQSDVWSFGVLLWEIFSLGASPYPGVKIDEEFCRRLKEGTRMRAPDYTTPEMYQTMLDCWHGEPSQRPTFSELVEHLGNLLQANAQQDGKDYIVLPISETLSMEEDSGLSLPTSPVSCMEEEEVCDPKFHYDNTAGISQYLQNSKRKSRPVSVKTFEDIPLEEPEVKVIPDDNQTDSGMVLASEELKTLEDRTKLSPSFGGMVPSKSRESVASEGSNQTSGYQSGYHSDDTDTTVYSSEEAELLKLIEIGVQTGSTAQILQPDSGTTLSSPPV

For `CC(C)Oc1ccc(-c2cnc3c(-c4ccnc5ccccc45)cnn3c2)cc1` [DMH1], the “Smad 1/5/8 activity (BRE-luciferase activity)” value (Smad 1/5/8 activity) was “significant decrease”, the “level of phosphorylated Smad 1/5/8 expression” value [1] was “decreased” and the “Id1, Id2, and Id3 expression (mRNA)” value [2] was “significantly decreased”. The “protein levels of Id1 and Id3” value (Id1 and Id3 protein) was “decrease”, the “reduction of Id1 protein expression (comparison)” value (Id1 and Id3 protein; H1299 and A549 cells, 1 μM) was “greater reduction of Id1 in H1299 cells compared to A549 cells” and the “inhibition of ca-alk3 activity (BRE-luciferase)” value [3] was “significant inhibition”. The “inhibition of ca-alk6 activity (BRE-luciferase)” value [4] was “partially inhibited alk6 but not as effectively as DMH2”, the anchorage independent growth (A549 cells [5]) was “significantly reduced” and the anchorage independent growth (H1299 cells [6]) was “significantly reduced”. The “cell death (percentage of cells taking up ethidium bromide)” value (A549 cells [7]) was “significant increase in cell death”, the “inhibition of alk2 activity” value (alk2) was “inhibited” and the “inhibition of alk3 activity” value (alk3) was “inhibited”. For the same molecule, the “inhibition of alk6 activity” value (alk6) was “negligible inhibitory effects”, the “activity for AMP kinase (comparison)” value (AMP kinase) was “less activity” and the “activity for VEGF II (comparison)” value (VEGF II) was “less activity”. For the same molecule, the “activity for TGFβ receptor alk5 (comparison)” value (TGFβ receptor alk5) was “less activity” and the “activity for platelet-derived growth factor receptor-β (comparison)” value [8] was “less activity”.

In the case of `c1ccc2c(-c3cnn4cc(-c5ccc(N6CCNCC6)cc5)cnc34)ccnc2c1` [LDN, LDN-193189, reference compound], the “Smad 1/5/8 activity (BRE-luciferase activity)” value (Smad 1/5/8 activity) was “significant decrease”, the “phosphorylated Smad 1/5/8 expression” value ([1]; A549 cells) was “decrease” and the “level of phosphorylated Smad 1/5/8 expression” value [1] was “decreased”. The “protein levels of Id1 and Id3” value (Id1 and Id3 protein) was “decrease”, the “inhibition of ca-alk6 activity (BRE-luciferase)” value [4] was “very similar to that of DMH2” and the “cell growth (number of cells)” value (A549 cells [9]) was “more growth inhibition than DMH1”. The “cell growth (number of cells)” value (H1299 cells [10]) was “more growth inhibition than DMH1”, the clonogenic growth (A549 cells [11]) was “inhibited more by DMH2 and LDN than DMH1” and the clonogenic growth (H1299 cells [12]) was “inhibited more by DMH2 and LDN than DMH1”. For the same molecule, the “inhibition of alk2 activity” value (alk2) was “effectively inhibits”, the “inhibition of alk3 activity” value (alk3) was “effectively inhibits” and the “inhibition of alk6 activity” value (alk6) was “effectively inhibits”. For the same molecule, the “activity for AMP kinase (comparison)” value (AMP kinase) was “less AMP kinse activity than Dorsomorphin”.

Source: patent US9505763B2, “Cancer treatment using BMP inhibitor” (Vanderbilt University, priority 2011, dated 2016)
